Laboratory results reported in article doi:10.1101/2022.02.27.481963v1 (biorxiv, 2022).
Values belong to the molecule of their own block, whether it stands above or below them.

Experiments:
[1] = test system: fused MjGMPS; assay: continuous absorbance at […] nm, GMP formation; assay type: biochemical, Methanocaldococcus jannaschii; settings: ATPPase site, pH 7.0, 70 °C
[2] = substrate: O=c1[nH]c(=O)c2ncn([C@@H]3O[C@H](COP(=O)(O)O)[C@@H](O)[C@H]3O)c2[nH]1; assay: purified protein; assay type: biochemical, Methanocaldococcus jannaschii; settings: pH 7.0, 70 °C

Km ([1]; saturating ATP.Mg2+): 44 ± 1 µM
Molecule: O=c1[nH]c(=O)c2ncn([C@@H]3O[C@H](COP(=O)(O)O)[C@@H](O)[C@H]3O)c2[nH]1 [XMP]

Molecule: Nc1ncnc2c1ncn2[C@@H]1O[C@H](COP(=O)(O)OP(=O)(O)OP(=O)(O)O)[C@@H](O)[C@H]1O [ATP.Mg^2+]
Km ([1]; Mg2+ complex, saturating XMP): 503 ± 6 µM

B1: MjATPPase (Methanocaldococcus jannaschii DSM 2661) (protein)
chain: MFDPKKFIDEAVEEIKQQISDRKAIIALSGGVDSSVAAVLTHKAIGDKLTAVFVDTGLMRKGEREEVEKTFRDKLGLNLIVVDAKDRFLNALKGVTDPEEKRKIIGKLFIDVFEEIAEDIKAEVLVQGTIAPDWIETQGKIKSHHNVALPHGMVLEVVEPLRELYKDEVRLLAKELGLPDSIVYRQPFPGPGLAVRVLGEVTEEKLNICREANAIVEEEVKKANLDKDLWQYFAVVLDCKATGVKGDEREYNWIVALRMVKSLDAMTAHVPEIPFDLLKRISKRITSEIPNVARVVFDITDKPPATIEFE
Km ([2]; NH4Cl dependent, saturating ATP.Mg2+ and NH4Cl): 30 ± 2 µM

B2: MjGMPS (MjATPPase + MjGATase), ATPPase site (Methanocaldococcus jannaschii DSM 2661) (protein)
chain: MFDPKKFIDEAVEEIKQQISDRKAIIALSGGVDSSVAAVLTHKAIGDKLTAVFVDTGLMRKGEREEVEKTFRDKLGLNLIVVDAKDRFLNALKGVTDPEEKRKIIGKLFIDVFEEIAEDIKAEVLVQGTIAPDWIETQGKIKSHHNVALPHGMVLEVVEPLRELYKDEVRLLAKELGLPDSIVYRQPFPGPGLAVRVLGEVTEEKLNICREANAIVEEEVKKANLDKDLWQYFAVVLDCKATGVKGDEREYNWIVALRMVKSLDAMTAHVPEIPFDLLKRISKRITSEIPNVARVVFDITDKPPATIEFE
Km ([2]; Gln dependent, saturating ATP.Mg2+ and Gln): 61 ± 3 µM
